In patent US20120157532A1, “Method Of Treating Or Preventing A Convulsive Disorder In A Patient In Need Thereof” (priority 2009, published 2012):

Legend:
[1] = tested on: Wistar rats Rj Wi IOPS Han; experiment: Photopic electroretinogram (ERG) in VGB-treated rats; assay type: in vivo, rat; details: for photopic ERG amplitude versus control group: p<0.001/p<0.01
Experimental: (§1) Animal treatments: As described previously (Duboc et al., 2004), Wistar rats Rj Wi IOPS Han were purchased from Janvier (Le Genest-St-lsle, France) at between six and seven weeks of age. VGB dissolved in 0.9% NaCl was administered at 40 mg (125 mg/ml, 0.32 ml) to rats by daily intraperitoneal injection for 65 days. These daily doses (rats: 200 mg/kg) are in-line with those described for the treatment of epilepsy in animals (Andre et al., 2001) or in humans (adult patients: […]; children: 50-75 mg/kg; or infants: 100-150 mg/kg) (Aicardi et al., 1996; Chiron et al., 1997; Lux et al., 2004). Light intensity in the animal cages ranged between 125 and 130 lux.
Electroretinogram (ERG): Photopic ERGs were recorded after the last VGB injection, as described previously (Duboc et al., 2004). Anesthesia was induced by intraperitoneal injection (0.8 to 1.2 ml/kg) of a solution containing ketamine (40 mg/ml) and xylazine (4 mg/ml Rompum). Animals were light-adapted for 10 minutes with a background light of 25 cdm^−2. Light flashes were then applied on this background light; the light intensity of the flash was 25 cdsm^−2. Ten recordings were averaged with an interstimulus interval of 30 s.
Statistical analysis: Statistical analysis of the results was performed by a one-way analysis of variance with the Student-Newman Keuls test (Sigmastat) for all measurements.

[2] = tested on: Wistar rats Rj Wi IOPS Han; experiment: Histology: lengths of disorganised retinal areas (DAPI nuclear staining); assay type: in vivo, rat; details: evening versus morning injection, 65 days; p<0.05
Experimental: as §1
Histology: Eye cups were fixed overnight at 4° C. in 4 % (wt/vol) paraformaldehyde in phosphate buffered saline (PBS; 0.01 M, pH 7.4). The tissue was cryoprotected in successive solutions of PBS containing 10%, 20% and 30% sucrose at 4° C., oriented along the dorso-ventral axis and embedded in OCT (Labonord, Villeneuve d'Ascq, France). […]
(§2) For quantification, vertical sections along the dorso-ventral axis were selected at the optic nerve. Following DAPI nuclear staining, the lengths of disorganised retinal areas were measured; GFAP immunostaining was used for detection and quantificationof retinal areas with reactive gliosis. […]

[3] = tested on: Wistar rats Rj Wi IOPS Han; experiment: Histology: retinal gliosis by GFAP immunolabelling; assay type: in vivo, rat; details: 65 days
Experimental: as §1
Histology: Eye cups were fixed overnight at 4° C. in 4 % (wt/vol) paraformaldehyde in phosphate buffered saline (PBS; 0.01 M, pH 7.4). The tissue was cryoprotected in successive solutions of PBS containing 10%, 20% and 30% sucrose at 4° C., oriented along the dorso-ventral axis and embedded in OCT (Labonord, Villeneuve d'Ascq, France). Retinal sections (8-10 μm thickness) were permeabilised for five minutes in PBS containing 0.1% Triton X-100 (Sigma, St. Louis, Mo.), rinsed, and incubated in PBS containing 1% bovine serum albumin (Eurobio, Les-Ulis, France), 0.1% Tween 20 (Sigma), and 0.1% sodium azide (Merck, Fontenay-Sous-Bois, France) for two hours at room temperature. The primary antibody added to the solution was incubated for two hours at room temperature. Polyclonal antibodies were directed against rabbit GFAP (1/400, Dako, USA). Sections were rinsed and then incubated with the secondary antibody, goat anti-rabbit IgG conjugated to Alexa TM488 (1:500, Molecular Probes, Eugene, Oreg.) for two hours. The dye, diamidiphenyl-indole (DAPI), was added during the final incubation period. […]
as §2

[4] = patients, oral administration; cited from earlier work
visual field = details: patients; cited from earlier work
GABA transaminase = GABA transaminase (Homo sapiens, UniProt P80404); details: cited from earlier work
GABA transaminase, sequence (P80404 29-500, species assumed): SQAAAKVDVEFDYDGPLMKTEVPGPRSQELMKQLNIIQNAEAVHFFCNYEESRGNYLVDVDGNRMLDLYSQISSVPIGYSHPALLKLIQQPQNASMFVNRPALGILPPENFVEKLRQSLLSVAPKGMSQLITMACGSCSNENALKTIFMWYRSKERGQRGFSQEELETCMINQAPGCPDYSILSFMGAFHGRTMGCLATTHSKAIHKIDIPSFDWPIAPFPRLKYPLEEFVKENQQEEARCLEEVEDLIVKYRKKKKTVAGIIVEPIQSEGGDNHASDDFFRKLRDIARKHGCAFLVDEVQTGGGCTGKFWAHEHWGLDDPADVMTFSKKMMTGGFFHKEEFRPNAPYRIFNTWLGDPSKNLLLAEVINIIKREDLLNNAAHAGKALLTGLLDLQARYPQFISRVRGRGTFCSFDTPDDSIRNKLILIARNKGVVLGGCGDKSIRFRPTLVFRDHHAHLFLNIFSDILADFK

C=CC(N)CCC(=O)O (centres unmarked) [VGB, 4-amino-5-hexenoic acid]
photopic ERG amplitude versus control group ([1]; VGB AM: 40 mg daily i.p. for 65 days at the beginning of the light cycle): lower ERG amplitude | photopic ERG amplitude versus control group ([1]; VGB PM: 40 mg daily i.p. for 65 days at the end of the light cycle): lower ERG amplitude | ERG amplitude decrease, VGB PM versus VGB AM ([1]; injected at the end versus the beginning of the light cycle, 65 days, p<0.005): less important | disorganised retinal areas (outer nuclear layer), VGB PM versus VGB AM [2]: smaller disorganised retinal areas | GFAP staining in the outer retina versus control animals ([3]; VGB AM: morning injection): intense staining in the outer retina | GFAP staining in the outer retina versus control animals ([3]; VGB PM: evening injection): intense staining in the outer retina | distribution of GFAP-positive areas, VGB PM versus VGB AM ([3]; evening versus morning injection, p<0.05): less widely distributed | time for plasma VGB concentration to decrease to half of the peak concentration [4]: within six to eight hours | time to peak plasma VGB concentration [4]: within an hour | effect on visual field (visual field): irreversible constriction of the visual field | duration of irreversible inhibition of the GABA transaminase (GABA transaminase): lasts for few days
